Data from ChEMBL document CHEMBL3045426, “Synthesis, Antiviral and Antibacterial Activities of Isatin Mannich Bases” (Med Chem Res, 2005).
≈ marks a conversion by molar mass, not a printed value.

Tested on: not listed separately
Assay: Selectivity index, ratio of CC50 for human MT4 cells to EC50 for HIV1 3B infected in MT4 cells
Type: toxicity, cell-based
Conditions: read-out: Ratio CC50/EC50

Structure (SMILES)	selectivity ratio
CCN(CC)CN1C(=O)/C(=N\c2ncc(Cc3cc(OC)c(OC)c(OC)c3)c(N)n2)c2cc(Cl)ccc21	3

Tested on: Vibrio cholerae
Assay: Antimicrobial activity against Vibrio cholerae 01 after 18 to 20 hr by agar dilution method
Type: functional
Conditions: 1

Structure (SMILES)	MIC
CCN(CC)CN1C(=O)/C(=N\c2ncc(Cc3cc(OC)c(OC)c(OC)c3)c(N)n2)c2cc(Cl)ccc21	1.22 µg/mL (≈ 2.26 µM)

Tested on: Priestia megaterium
Assay: Antimicrobial activity against Bacillus megaterium after 18 to 20 hr by agar dilution method
Type: functional
Conditions: not given

Structure (SMILES)	MIC
CCN(CC)CN1C(=O)/C(=N\c2ncc(Cc3cc(OC)c(OC)c(OC)c3)c(N)n2)c2cc(Cl)ccc21	1250 µg/mL (≈ 2320 µM)

Tested on: Enterobacter
Assay: Antimicrobial activity against Enterobacter after 18 to 20 hr by agar dilution method
Type: functional
Conditions: not given

Structure (SMILES)	MIC
CCN(CC)CN1C(=O)/C(=N\c2ncc(Cc3cc(OC)c(OC)c(OC)c3)c(N)n2)c2cc(Cl)ccc21	312 µg/mL (≈ 580 µM)

Tested on: Citrobacter freundii
Assay: Antimicrobial activity against Citrobacter freundii after 18 to 20 hr by agar dilution method
Type: functional
Conditions: not given

Structure (SMILES)	MIC
CCN(CC)CN1C(=O)/C(=N\c2ncc(Cc3cc(OC)c(OC)c(OC)c3)c(N)n2)c2cc(Cl)ccc21	312 µg/mL (≈ 580 µM)

Tested on: Salmonella enteritidis
Assay: Antimicrobial activity against Salmonella enterica subsp. enterica serovar Enteritidis after 18 to 20 hr by agar dilution method
Type: functional
Conditions: not given

Structure (SMILES)	MIC
CCN(CC)CN1C(=O)/C(=N\c2ncc(Cc3cc(OC)c(OC)c(OC)c3)c(N)n2)c2cc(Cl)ccc21	625 µg/mL (≈ 1160 µM)

Tested on: Salmonella typhimurium
Assay: Antimicrobial activity against Salmonella enterica subsp. enterica serovar Typhimurium after 18 to 20 hr by agar dilution method
Type: functional
Conditions: not given

Structure (SMILES)	MIC
CCN(CC)CN1C(=O)/C(=N\c2ncc(Cc3cc(OC)c(OC)c(OC)c3)c(N)n2)c2cc(Cl)ccc21	312 µg/mL (≈ 580 µM)

Tested on: Proteus mirabilis
Assay: Antimicrobial activity against Proteus mirabilis after 18 to 20 hr by agar dilution method
Type: functional
Conditions: not given

Structure (SMILES)	MIC
CCN(CC)CN1C(=O)/C(=N\c2ncc(Cc3cc(OC)c(OC)c(OC)c3)c(N)n2)c2cc(Cl)ccc21	312 µg/mL (≈ 580 µM)

Tested on: Proteus vulgaris
Assay: Antimicrobial activity against Proteus vulgaris after 18 to 20 hr by agar dilution method
Type: functional
Conditions: not given

Structure (SMILES)	MIC
CCN(CC)CN1C(=O)/C(=N\c2ncc(Cc3cc(OC)c(OC)c(OC)c3)c(N)n2)c2cc(Cl)ccc21	625 µg/mL (≈ 1160 µM)

Tested on: Edwardsiella tarda
Assay: Antimicrobial activity against Edwardsiella tarda after 18 to 20 hr by agar dilution method
Type: functional
Conditions: not given

Structure (SMILES)	MIC
CCN(CC)CN1C(=O)/C(=N\c2ncc(Cc3cc(OC)c(OC)c(OC)c3)c(N)n2)c2cc(Cl)ccc21	1250 µg/mL (≈ 2320 µM)

Tested on: Escherichia coli
Assay: Antimicrobial activity against Escherichia coli NCTC 10418 after 18 to 20 hr by agar dilution method
Type: functional
Conditions: not given

Structure (SMILES)	MIC
CCN(CC)CN1C(=O)/C(=N\c2ncc(Cc3cc(OC)c(OC)c(OC)c3)c(N)n2)c2cc(Cl)ccc21	1250 µg/mL (≈ 2320 µM)

Tested on: Salmonella typhi
Assay: Antimicrobial activity against Salmonella enterica subsp. enterica serovar Typhi after 18 to 20 hr by agar dilution method
Type: functional
Conditions: not given

Structure (SMILES)	MIC
CCN(CC)CN1C(=O)/C(=N\c2ncc(Cc3cc(OC)c(OC)c(OC)c3)c(N)n2)c2cc(Cl)ccc21	1250 µg/mL (≈ 2320 µM)

Tested on: Salmonella paratyphi
Assay: Antimicrobial activity against Salmonella enterica subsp. enterica serovar Paratyphi A after 18 to 20 hr by agar dilution method
Type: functional
Conditions: not given

Structure (SMILES)	MIC
CCN(CC)CN1C(=O)/C(=N\c2ncc(Cc3cc(OC)c(OC)c(OC)c3)c(N)n2)c2cc(Cl)ccc21	78.1 µg/mL (≈ 145 µM)

Tested on: Vibrio parahaemolyticus
Assay: Antimicrobial activity against Vibrio parahaemolyticus after 18 to 20 hr by agar dilution method
Type: functional
Conditions: not given

Structure (SMILES)	MIC
CCN(CC)CN1C(=O)/C(=N\c2ncc(Cc3cc(OC)c(OC)c(OC)c3)c(N)n2)c2cc(Cl)ccc21	39.1 µg/mL (≈ 72.5 µM)

Tested on: Vibrio cholerae
Assay: Antimicrobial activity against Vibrio cholerae 0139 after 18 to 20 hr by agar dilution method
Type: functional
Conditions: 139

Structure (SMILES)	MIC
CCN(CC)CN1C(=O)/C(=N\c2ncc(Cc3cc(OC)c(OC)c(OC)c3)c(N)n2)c2cc(Cl)ccc21	312 µg/mL (≈ 580 µM)

Tested on: Vibrio fluvialis
Assay: Antimicrobial activity against Vibrio fluvialis after 18 to 20 hr by agar dilution method
Type: functional
Conditions: not given

Structure (SMILES)	MIC
CCN(CC)CN1C(=O)/C(=N\c2ncc(Cc3cc(OC)c(OC)c(OC)c3)c(N)n2)c2cc(Cl)ccc21	625 µg/mL (≈ 1160 µM)

Tested on: Vibrio mimicus
Assay: Antimicrobial activity against Vibrio mimicus after 18 to 20 hr by agar dilution method
Type: functional
Conditions: not given

Structure (SMILES)	MIC
CCN(CC)CN1C(=O)/C(=N\c2ncc(Cc3cc(OC)c(OC)c(OC)c3)c(N)n2)c2cc(Cl)ccc21	9.76 µg/mL (≈ 18.1 µM)

Tested on: Pseudomonas aeruginosa
Assay: Antimicrobial activity against Pseudomonas aeruginosa after 18 to 20 hr by agar dilution method
Type: functional
Conditions: not given

Structure (SMILES)	MIC
CCN(CC)CN1C(=O)/C(=N\c2ncc(Cc3cc(OC)c(OC)c(OC)c3)c(N)n2)c2cc(Cl)ccc21	1250 µg/mL (≈ 2320 µM)

Tested on: Staphylococcus aureus
Assay: Antimicrobial activity against Staphylococcus aureus after 18 to 20 hr by agar dilution method
Type: functional
Conditions: not given

Structure (SMILES)	MIC
CCN(CC)CN1C(=O)/C(=N\c2ncc(Cc3cc(OC)c(OC)c(OC)c3)c(N)n2)c2cc(Cl)ccc21	625 µg/mL (≈ 1160 µM)

Tested on: Morganella morganii
Assay: Antimicrobial activity against Morganella morganii after 18 to 20 hr by agar dilution method
Type: functional
Conditions: not given

Structure (SMILES)	MIC
CCN(CC)CN1C(=O)/C(=N\c2ncc(Cc3cc(OC)c(OC)c(OC)c3)c(N)n2)c2cc(Cl)ccc21	625 µg/mL (≈ 1160 µM)

Tested on: Shigella boydii
Assay: Antimicrobial activity against Shigella boydii after 18 to 20 hr by agar dilution method
Type: functional
Conditions: not given

Structure (SMILES)	MIC
CCN(CC)CN1C(=O)/C(=N\c2ncc(Cc3cc(OC)c(OC)c(OC)c3)c(N)n2)c2cc(Cl)ccc21	39.1 µg/mL (≈ 72.5 µM)

Tested on: Plesiomonas
Assay: Antimicrobial activity against Plesiomonas after 18 to 20 hr by agar dilution method
Type: functional
Conditions: not given

Structure (SMILES)	MIC
CCN(CC)CN1C(=O)/C(=N\c2ncc(Cc3cc(OC)c(OC)c(OC)c3)c(N)n2)c2cc(Cl)ccc21	19.5 µg/mL (≈ 36.2 µM)

Tested on: Shigella sonnei
Assay: Antimicrobial activity against Shigella sonnei after 18 to 20 hr by agar dilution method
Type: functional
Conditions: not given

Structure (SMILES)	MIC
CCN(CC)CN1C(=O)/C(=N\c2ncc(Cc3cc(OC)c(OC)c(OC)c3)c(N)n2)c2cc(Cl)ccc21	1250 µg/mL (≈ 2320 µM)

Tested on: Klebsiella pneumoniae
Assay: Antimicrobial activity against Klebsiella pneumoniae after 18 to 20 hr by agar dilution method
Type: functional
Conditions: not given

Structure (SMILES)	MIC
CCN(CC)CN1C(=O)/C(=N\c2ncc(Cc3cc(OC)c(OC)c(OC)c3)c(N)n2)c2cc(Cl)ccc21	1250 µg/mL (≈ 2320 µM)

Tested on: Klebsiella pneumoniae
Assay: Antimicrobial activity against Klebsiella pneumoniae subsp. ozaenae after 18 to 20 hr by agar dilution method
Type: functional
Conditions: not given

Structure (SMILES)	MIC
CCN(CC)CN1C(=O)/C(=N\c2ncc(Cc3cc(OC)c(OC)c(OC)c3)c(N)n2)c2cc(Cl)ccc21	625 µg/mL (≈ 1160 µM)

Tested on: Mycobacterium tuberculosis
Assay: Antimycobacterial activity against Mycobacterium tuberculosis H37Rv ATCC 27294 at 6.25 ug/ml by MABA
Type: functional
Conditions: not given

Structure (SMILES)	inhibition at 6.25 µg/mL
CCN(CC)CN1C(=O)/C(=N\c2ncc(Cc3cc(OC)c(OC)c(OC)c3)c(N)n2)c2cc(Cl)ccc21	53%

Tested on: not listed separately
Assay: Cytotoxicity against Homo sapiens (human) HuH7 cells assessed as cell growth at 50 ug/ml after 3 days by Neutral red assay
Type: cell-based, Huh-7
Conditions: read-out: Activity

Structure (SMILES)	viability at 72 h, 50 ug/ml
CCN(CC)CN1C(=O)/C(=N\c2ncc(Cc3cc(OC)c(OC)c(OC)c3)c(N)n2)c2cc(Cl)ccc21	72%

Tested on: not listed separately
Assay: Cytotoxicity against Homo sapiens (human) CEM cells after 5 days by MTT assay
Type: cell-based
Conditions: CEM cells (CCRF-CEM)

Structure (SMILES)	CC50 at 120 h
CCN(CC)CN1C(=O)/C(=N\c2ncc(Cc3cc(OC)c(OC)c(OC)c3)c(N)n2)c2cc(Cl)ccc21	98.4 µg/mL (≈ 183 µM)

Tested on: Human immunodeficiency virus 1
Assay: Antiviral activity against Human immunodeficiency virus 1 IIIB infected CEM cells assessed as protection against viral infection after 6 days by XTT assay
Type: functional, CCRF-CEM
Parameters: concentration or dose not given beside the values
Conditions: not given

Structure (SMILES)	Activity
CCN(CC)CN1C(=O)/C(=N\c2ncc(Cc3cc(OC)c(OC)c(OC)c3)c(N)n2)c2cc(Cl)ccc21	20.69%

Tested on: Human immunodeficiency virus 1
Assay: Antiviral activity against Human immunodeficiency virus 1 IIIB infected CEM cells assessed as inhibition of virus-induced cytopathicity after 6 days by XTT assay
Type: functional, organism-based
Conditions: CCRF-CEM, 144 h

Structure (SMILES)	EC50
CCN(CC)CN1C(=O)/C(=N\c2ncc(Cc3cc(OC)c(OC)c(OC)c3)c(N)n2)c2cc(Cl)ccc21	> 98.4 µg/mL

Tested on: not listed separately
Assay: Cytotoxicity against Homo sapiens (human) MT4 cells after 5 days by MTT assay
Type: cell-based
Conditions: not given

Structure (SMILES)	CC50 at 120 h
CCN(CC)CN1C(=O)/C(=N\c2ncc(Cc3cc(OC)c(OC)c(OC)c3)c(N)n2)c2cc(Cl)ccc21	79.1 µg/mL (≈ 147 µM)

Tested on: Human immunodeficiency virus 1
Assay: Antiviral activity against Human immunodeficiency virus 1 IIIB infected MT4 cells assessed as inhibition of virus-induced cytopathicity after 5 days by MTT assay
Type: functional, organism-based
Conditions: MT4, 120 h

Structure (SMILES)	EC50
CCN(CC)CN1C(=O)/C(=N\c2ncc(Cc3cc(OC)c(OC)c(OC)c3)c(N)n2)c2cc(Cl)ccc21	23.6 µg/mL (≈ 43.8 µM)

Tested on: Hepatitis C virus
Assay: Antiviral activity against Hepatitis C virus BM4-5 infected in Huh7 cells assessed as inhibition of viral RNA replication by phosphor screening method
Type: functional, Hepacivirus hominis, Huh-7
Conditions: not given

Structure (SMILES)	inhibition (INH)
CCN(CC)CN1C(=O)/C(=N\c2ncc(Cc3cc(OC)c(OC)c(OC)c3)c(N)n2)c2cc(Cl)ccc21	67%

Tested on: Human immunodeficiency virus 1
Assay: Antiviral activity against Human immunodeficiency virus 1 IIIB infected MT4 cells assessed as protection against viral infection after 5 days by MTT assay
Type: functional
Parameters: concentration or dose not given beside the values
Conditions: not given

Structure (SMILES)	Activity
CCN(CC)CN1C(=O)/C(=N\c2ncc(Cc3cc(OC)c(OC)c(OC)c3)c(N)n2)c2cc(Cl)ccc21	64.1%
